This is an account of results in patent publication US4435404A, “Carbostyril derivatives” (priority 1980, dated 1984).

One data set is described as follows: Acute Toxicity Test. The settings on record: mouse, in vivo; male mice, oral administration. The method, then:
The test compounds were administered orally to the mice and LD50 (mg/kg) of the compounds was determined.

Data set [1] concerns ADP-induced aggregation in rabbit platelet. The data set can be described thus: Inhibition effect on ADP-induced aggregation in rabbit platelet. As to conditions: Oryctolagus cuniculus, Platelet; for inhibition at 100 µM: concentration of the test compound solution 10^-4 mole; for inhibition at 10 µM: concentration of the test compound solution 10^-5 mole; for inhibition at 10 µM / inhibition at 1 µM / inhibition at 0.1 µM: read-out: Inhibition effect on ADP-induced aggregation; for inhibition at 1 µM: concentration of the test compound solution 10^-6 mole; for inhibition at 0.1 µM: concentration of the test compound solution 10^-7 mole. Type of data set: cell-based. The method, then: (§1) The platelet aggregation inhibitory effect is measured by using AG-II aggregometer (manufactured by Bryston Manufacturing Co.). The blood sample used for the test is a 1/9 (by volume) mixture of sodium citrate and whole blood collected from rabbit. Said sample is subjected to 10-minute centrifugal separation at 1,000 r.p.m. to obtain a platelet rich plasma (PRP). The thus obtained PRP is separated, and the remaining blood sample is further subjected to 15-minute centrifugal separation at 3,000 r.p.m. to obtain a platelet poor plasma (PPP).
(§2) The number of platelets in the PRP is counted by the Brecher-Clonkite Method, and the PRP is diluted with the PPP to prepare a PRP sample with platelet concentration of 300,000/mm^3 for the adenosine diphosphate (ADP)-induced aggregation test. There is also prepared a PRP sample with platelet concentration of 450,000/mm^3 for the collagen-induced aggregation test.
(§3) 0.6 Milliliter of said PRP sample is added into 0.01 ml of a solution of a test compound of a predetermined concentration and the mixture is placed in a 37° C. thermostat for one minute. Then 0.07 ml of an ADP or collagen solution is added to the mixture. Transmittance of this mixture is determined and the change of transmittance is recorded by using the aggregometer at stirrer speed of 1,100 r.p.m. […] The ADP solution is adjusted to a concentration of 7.5×10^-5 M, and the collagen solution is prepared by triturating 100 mg of collagen with 5 ml of said buffer and the supernatant is used as collagen inducer. Acetylsalicylic acid is used as control for the ADP-induced aggregation test and the collagen-induced aggregation test, respectively. The platelet aggregation inhibitory effect is measured in terms of percent inhibition with respect to the aggregation rate of the controls. The aggregation rate is calculated from the following formula:
(§4) Aggregation rate=[(c-a)/(b-a)]×100
(§5) b: transmittance of PRP containing a test compound and an aggregation inducer

In data set [2] the test system is collagen-induced aggregation in rabbit platelet. Briefly: Inhibition effect on collagen-induced aggregation in rabbit platelet. Type of data set: cell-based. The settings on record: Oryctolagus cuniculus, Platelet, read-out: Inhibition effect on collagen-induced aggregation; for inhibition at 10 µM: concentration of the test compound solution 10^-5 mole; for inhibition at 1 µM: concentration of the test compound solution 10^-6 mole; for inhibition at 0.1 µM: concentration of the test compound solution 10^-7 mole. The method, then:
as §1, §2, §3, §4, §5

In data set [3] the target is T1, cyclic AMP phosphodiesterase (Oryctolagus cuniculus, UniProt G1ST54).
T1 construct: the supernatant was collected to use it as a crude enzyme solution; from tissue; host or cells: rabbit platelets (from platelet-rich plasma)
T1 sequence (G1ST54 1-1128): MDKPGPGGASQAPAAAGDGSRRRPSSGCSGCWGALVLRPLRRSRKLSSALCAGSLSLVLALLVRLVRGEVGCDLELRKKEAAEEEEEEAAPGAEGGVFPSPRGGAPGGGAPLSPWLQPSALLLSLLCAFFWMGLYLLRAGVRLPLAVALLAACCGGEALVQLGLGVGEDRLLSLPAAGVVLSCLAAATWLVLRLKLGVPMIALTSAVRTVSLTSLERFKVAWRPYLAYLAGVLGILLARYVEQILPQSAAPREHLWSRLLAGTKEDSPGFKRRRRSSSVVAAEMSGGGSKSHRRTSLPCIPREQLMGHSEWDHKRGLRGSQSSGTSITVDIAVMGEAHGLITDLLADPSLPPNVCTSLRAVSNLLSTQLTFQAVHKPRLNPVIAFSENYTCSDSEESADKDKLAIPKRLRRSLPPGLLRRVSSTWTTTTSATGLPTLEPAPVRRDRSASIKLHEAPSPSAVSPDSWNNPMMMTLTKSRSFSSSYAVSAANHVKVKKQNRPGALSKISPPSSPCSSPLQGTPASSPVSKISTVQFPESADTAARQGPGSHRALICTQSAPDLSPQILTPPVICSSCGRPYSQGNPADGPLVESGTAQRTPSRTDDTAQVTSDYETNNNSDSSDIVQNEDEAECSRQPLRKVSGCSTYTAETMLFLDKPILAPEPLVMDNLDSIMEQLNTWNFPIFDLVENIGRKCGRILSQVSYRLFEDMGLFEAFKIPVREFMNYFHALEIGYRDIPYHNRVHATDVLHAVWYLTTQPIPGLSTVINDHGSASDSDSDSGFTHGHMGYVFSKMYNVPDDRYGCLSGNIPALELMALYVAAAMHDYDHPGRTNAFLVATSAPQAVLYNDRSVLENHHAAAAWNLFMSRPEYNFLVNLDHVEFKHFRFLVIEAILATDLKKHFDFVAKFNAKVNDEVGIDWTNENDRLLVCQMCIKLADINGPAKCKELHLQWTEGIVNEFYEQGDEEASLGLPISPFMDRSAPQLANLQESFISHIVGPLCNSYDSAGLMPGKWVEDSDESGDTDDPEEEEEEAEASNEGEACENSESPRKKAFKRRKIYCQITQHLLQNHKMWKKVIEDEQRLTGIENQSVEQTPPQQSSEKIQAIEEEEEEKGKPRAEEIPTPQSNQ
Briefly: Obstructive action against cyclic AMP phosphodiesterase. Type of data set: biochemical. The settings on record: rabbit platelet enzyme, 30° C., 20 minutes. The method, then:
That is, for determining the obstructive activity against cyclic AMP phosphodiesterase, 10 ml of a solution obtained by adding 1 mmol of MgCl2 into 50 mmol of tris-hydrochloric acid buffer with pH 7.4 was added to the platelets obtained by further centrifuging the above-said rabbit PRP at 3,000 r.p.m. for 10 minutes, and the suspended platelets were ground by a Teflon potter type homogenizer. This was followed by two times of freezing and thawing treatment and 300-second fracturing with 200 watt supersonic waves. After additional 60-minute centrifugation with 100,000 G, the supernatant was collected to use it as a crude enzyme solution.
10 Milliliters of this crude buffer solution was added to a 1.5×20 cm DEAE-cellulose column which has previously been buffered with 50 mM of tris-acetate buffer (pH 6.0), followed by washing and elution with 30 ml of 50 mM tris-acetate buffer, and this buffer solution was subjected to linear gradient elution with 0 to 0.5 moles of sodium acetate-tris-acetatebuffer (total amount of elute was 300 ml.). The flow rate was 0.5 ml/min, and 5 ml of each fraction was batched out. […] This fraction was used as cyclic AMP phosphodiesterase.
0.1 Milliliter of an aqueous solution of each test compound of a specified concentration was mixed with 40 mmol of tris-hydrochloric acid buffer (pH 8.0, containing 50 μg of cow serum albumin and 4 mmol of MgCl2) containing predetermined 1.0 μmol of cyclic AMP (tritium cyclic AMP), and 0.2 ml of this mixed solution was used as substrate solution.
0.2 Milliliter of the above-prepared cyclic AMP phosphodiesterase of a predetermined concentration was added to said substrate solution and the mixture was reacted at 30° C. for 20 minutes, producing tritium 5'-AMP from the tritium cyclic AMP.
The reaction system was then immersed in boiling water for 2 minutes to stop the reaction, and then this reaction solution was cooled in ice water and, for converting the produced tritium 5'-AMP into tritium adenosine, the solution was added with 0.05 ml (1 mg/ml) of snake poison as 5'-nucleotidase and reacted at 30° C. for 10 minutes. The whole amount of this reaction solution was then added to a cation exchange resin (AG 500 W×4, 200-400 meshes, manufactured by Bio-Rad Co., column size: 0.5×1.5 cm), and the produced tritium anodesine alone was allowed to combine, washed with 6 ml of distilled water and eluted with 1.5 ml of 3 N-ammonia water. The whole quantity of the elutant was added with 10 ml of a triton-toluene type scintillator and the produced tritium adenosine was measured by a liquid scintillation counter to determine the phosphodiesterase activity.
In this way, the phosphodiesterase activation value (Vs) of the test compounds of the respective concentrations was determined, and the phosphodiesterase obstruction rate (%) was determined from said activation value (Vs) and control value (Vc) (obtained from water not containing any test compound) from the following formula: [formula] Known 1-methyl-3-isobutylxanthine was used as control.

A value given as a limit tells only on which side of the number the result lay.

In general, LD50 refers to the dose at which mortality reaches 50%. Read a high LD50 as lower toxicity. As a reminder, the inhibition is the share of the control response that was lost under treatment. Broadly, the IC50 is the concentration at which inhibition is half-maximal. Read a high IC50 as lower potency.

Take `O=C1CCc2cc(OCCCC(=O)N3CCN(Cc4ccccc4)CC3)ccc2N1` [No. 15, 6-[3-(4-Benzyl-1-piperazinylcarbonyl)propoxy]-3,4-dihydrocarbostyril]: in the data set “Acute Toxicity Test”, the LD50 is above 1000 mg/kg. In data set [1], the inhibition at 100 µM was found to be 100%, the inhibition at 10 µM amounted to 100% and the inhibition at 1 µM was found to be 25.8%. Also, in data set [2], the inhibition at 10 µM was 98.8% and the inhibition at 1 µM turned out to be 24.6%. This compound gave an IC50 in data set [3] of 40 nM.

Regarding `CCN(C(=O)CCCOc1ccc2[nH]c(=O)ccc2c1)c1ccccn1` [No. 3, 6-{3-[N-Ethyl-N-(2-pyridyl)aminocarbonyl]propoxy}carbostyril], in the data set “Acute Toxicity Test”, the LD50 is above 1000 mg/kg. For the same compound, in data set [1], at 100 µM the inhibition was 100%, the inhibition at 10 µM is 31% and the inhibition at 1 µM is 10%. In data set [2], the inhibition at 10 µM turned out to be 100% and the inhibition at 1 µM came to 14%. Besides, in data set [3], the IC50 came to 400 nM.

`CC(=O)OC1CCC(N(C)C(=O)CCCOc2ccc3[nH]c(=O)ccc3c2)CC1` (centres unmarked) [No. 26, 6-{3-[N--Methyl-N--(4-acetyloxycyclohexyl)aminocarbonyl]propoxy}carbostyril, reference compound] gave an IC50 in data set [3] of 6.6 nM.

For `CN(Cc1ccco1)C(=O)CCCOc1ccc2[nH]c(=O)ccc2c1` [No. 4, 6-{3-[N-Methyl-N-(2-furylmethyl)aminocarbonyl]propoxy}carbostyril], the LD50 in “Acute Toxicity Test” was above 1000 mg/kg. Also, in data set [1], the inhibition at 100 µM is 85.7% and the inhibition at 10 µM was found to be 13.7%. For the same compound, the inhibition at 100 µM in data set [2] (concentration of the test compound solution 10^-4 mole) was found to be 92.5%. For the same compound, in data set [2], the inhibition at 10 µM was found to be 35.8% and the inhibition at 1 µM came out at 4%. Also, the IC50 in data set [3] came to 600 nM.

`CCCCN(CC1CCCCO1)C(=O)CCCCOc1ccc2c(c1)CCC(=O)N2` (centres unmarked) [No. 12, 6-{4-[N-Butyl-N-(2-tetrahydropyranylmethyl)aminocarbonyl]butoxy}-3,4-dihydrocarbostyril] yielded an LD50 in the data set “Acute Toxicity Test” above 1000 mg/kg. Besides, in data set [1], the inhibition at 100 µM was 100%, the inhibition at 10 µM was 40.2% and the inhibition at 1 µM turned out to be 8.3%. For the same compound, in data set [2], the inhibition at 10 µM was 100% and the inhibition at 1 µM was 10.3%. The compound further registered an IC50 in data set [3] of 25 nM.

With `CC(C)Cn1c(=O)n(C)c(=O)c2[nH]cnc21` [1-Methyl-3-isobutylxanthine, 1-methyl-3-isobutylxanthine, reference compound], half-maximal inhibition in data set [3] (IC50) required 540 nM. In other words, the sub-micromolar range.

Turning to `O=C(OCCN(C(=O)CCCOc1ccc2[nH]c(=O)ccc2c1)C1CCCCC1)c1ccccc1` [No. 10, 6-{3-[N-(2-Benzoyloxyethyl)-N-cyclohexylaminocarbonyl]propoxy}carbostyril], the LD50 in the data set “Acute Toxicity Test” is above 1000 mg/kg. Also, in data set [1], the inhibition at 100 µM worked out at 100%, the inhibition at 10 µM was determined as 80.7%, the inhibition at 1 µM was found to be 42.6% and the inhibition at 0.1 µM stood at 7.1%. Further, in data set [2], the inhibition at 10 µM was 100%, the inhibition at 1 µM worked out at 100% and the inhibition at 0.1 µM amounted to 56.7%. In data set [3], this compound displayed an IC50 of 12 nM.

Take `O=C(CCCOc1ccc2[nH]c(=O)ccc2c1)N1CCC(c2ccccc2)CC1` [No. 16, 6-[3-(4-Phenyl-1-piperidylcarbonyl)propoxy]carbostyril]: the LD50 in “Acute Toxicity Test” is above 1000 mg/kg. Also, in data set [1], the inhibition at 100 µM was determined as 100%, the inhibition at 10 µM is 27.9% and the inhibition at 1 µM came out at 4.9%. Also, in data set [2], the inhibition at 10 µM was 40.8% and the inhibition at 1 µM was determined as 7.7%.

Turning to `CCC(O)CN(C(=O)CCCCOc1ccc2[nH]c(=O)ccc2c1)C1CCCCCCC1` (centres unmarked) [No. 9, 6-{4-[N-(2-Hydroxybutyl)-N-cyclooctylaminocarbonyl]butoxy}carbostyril], in “Acute Toxicity Test”, the LD50 was above 1000 mg/kg. In data set [1], the inhibition at 100 µM came to 100%, the inhibition at 10 µM is 84.9%, the inhibition at 1 µM turned out to be 40.1% and the inhibition at 0.1 µM was found to be 5.6%. In data set [2], the inhibition at 10 µM stood at 100%, the inhibition at 1 µM amounted to 100% and the inhibition at 0.1 µM was determined as 43.2%.
